Test results from PMC137065 (Journal of Biology, 2002).
Where “and” joins values, the source holds several entries; their conditions need not be identical. Equal values may be shown once. Read-outs that look alike come from different tables or passages of the source.

What was measured:
Hh signaling = assay: luciferase-based reporter assay of Hh signaling in C3H10T1/2 cells; format: cell-based; conditions: for inhibition of Hh protein-activated versus agonist-activated cells: Hh protein (10 nM) or Hh-Ag 1.2 (200 nM); for effect on pathway activation by the agonist: cells activated by Hh-Ag 1.2 (200 nM)
murine Smo = murine Smo (Mus musculus, UniProt P56726); assay: filtration membrane-binding assay, Smo-containing membranes from 293T cells
[1] = molecular target: murine Smo W539L (Smo^act) (Mus musculus, UniProt P56726, W539L); assay: filtration membrane-binding assay, Smo^act-containing membranes
Smo^act-expressing cells = conditions: ref [11],[17]; cited from earlier work
HA-tagged Smo = HA-tagged Smo (Mus musculus, UniProt P56726); assay: whole cell/immunocomplex binding assay, Smo-transfected 293T cells; conditions: unlabeled competitor at 5 μM, 37°C, 2 hours
[2] = Smo^wt, competition with [3H]-Hh-Ag 1.5 (0.4 nM)
[3] = Smo^act, competition with [3H]-Hh-Ag 1.5 (0.4 nM)

murine Smo W539L (Smo^act), sequence (P56726 33-793 W539L): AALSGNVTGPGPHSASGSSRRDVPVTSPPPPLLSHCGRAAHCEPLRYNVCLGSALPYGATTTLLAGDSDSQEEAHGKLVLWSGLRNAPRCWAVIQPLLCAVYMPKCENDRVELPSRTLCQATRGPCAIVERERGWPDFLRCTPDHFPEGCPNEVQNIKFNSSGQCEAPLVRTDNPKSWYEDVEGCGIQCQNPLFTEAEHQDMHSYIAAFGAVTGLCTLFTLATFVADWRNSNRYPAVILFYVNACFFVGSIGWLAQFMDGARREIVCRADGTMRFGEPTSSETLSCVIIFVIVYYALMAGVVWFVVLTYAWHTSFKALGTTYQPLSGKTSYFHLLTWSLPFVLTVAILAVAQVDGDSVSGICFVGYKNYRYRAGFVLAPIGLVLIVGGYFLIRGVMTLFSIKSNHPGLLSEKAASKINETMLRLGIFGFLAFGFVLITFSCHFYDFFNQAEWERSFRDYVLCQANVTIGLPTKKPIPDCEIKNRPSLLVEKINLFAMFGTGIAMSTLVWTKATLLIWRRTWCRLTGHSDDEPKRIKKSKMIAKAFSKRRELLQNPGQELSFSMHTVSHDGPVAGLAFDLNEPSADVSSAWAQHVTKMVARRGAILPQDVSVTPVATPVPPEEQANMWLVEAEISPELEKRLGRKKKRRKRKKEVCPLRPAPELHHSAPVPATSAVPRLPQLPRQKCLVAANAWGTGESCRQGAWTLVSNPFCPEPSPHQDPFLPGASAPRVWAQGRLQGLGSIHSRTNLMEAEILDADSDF
murine Smo, sequence (P56726 33-793): as the sequence (P56726 33-793 W539L) above, with L507W counted along it
HA-tagged Smo, sequence (P56726 33-793): as the sequence (P56726 33-793 W539L) above, with L507W counted along it

COc1cccc(CN(C(=O)CC(C)(C)C)[C@H]2C[C@@H](C(=O)N3CCNCC3)N(Cc3ccc4c(c3)OCO4)C2)c1 [Cur61414]
inhibition of Hh protein-activated versus agonist-activated cells (Hh signaling): differ in their sensitivity | effect on pathway activation by the agonist (Hh signaling): inhibitory | Ki (murine Smo; [2]): 44 nM | competition of [3H]-Hh-Ag 1.5 (2 nM) binding (murine Smo; competitor at 10 μM): significantly compete | Ki on Smo^act- compared to Smo^wt-containing membranes [1]: seven-fold higher | Ki [1, 3]: 309 nM | potency on Smo^act-expressing cells (Smo^act-expressing cells): decreased potency | competition of [3H]-Hh-Ag 1.5 (5 nM) binding (HA-tagged Smo): significantly compete

CNC1CCC(N(Cc2cccc(-c3ccncc3)c2)C(=O)c2sc3c(F)ccc(F)c3c2Cl)CC1 (stereo not shown) [Hh-Ag 1.5]
EC50 (Hh signaling; cell-based reporter assay): ~1 nM and 1 nM | increase of potency by chemical modification (Hh signaling; relative to Hh-Ag 1.1): over 1000 fold | Ki (murine Smo; [2]): 0.52 nM and ~0.5 nM | Kd (murine Smo; saturation binding, approximately 45 hours at 37°C, one-site model): 0.37 nM | competition of [3H]-Hh-Ag 1.5 (2 nM) binding (murine Smo; unlabeled competitor at 2 μM): completely competed out | Ki [1, 3]: ~0.5 nM | affinity for Smo^act ([1]; kinetic and saturation binding assay, data not shown): affinity identical to that of Smo^wt | competition of [3H]-Hh-Ag 1.5 (5 nM) binding (HA-tagged Smo): complete absence of counts in the immunocomplex

CC1=C2C[C@H]3[C@@H](CC=C4CC(=O)CC[C@@]43C)[C@@H]2CC[C@]12O[C@@H]1C[C@H](C)CN(CCNC(=O)CCCCCNC(=O)CCc3ccccc3)[C@H]1[C@H]2C [KAAD-cyclopamine]
inhibition of Hh protein-activated versus agonist-activated cells (Hh signaling): Identical results | Ki (murine Smo): 5.8 nM | competition of [3H]-Hh-Ag 1.5 (2 nM) binding (murine Smo): significantly compete | Ki [1]: 38.3 nM | Ki on Smo^act- compared to Smo^wt-containing membranes [1]: seven-fold higher | potency on Smo^act-expressing cells (Smo^act-expressing cells): decreased potency | competition of [3H]-Hh-Ag 1.5 (5 nM) binding (HA-tagged Smo): significantly compete

CC1=C2C[C@H]3[C@@H](CC=C4C[C@@H](O)CC[C@@]43C)[C@@H]2CC[C@]12O[C@@H]1C[C@H](C)CN[C@H]1[C@H]2C [cyclopamine]
inhibition of Hh protein-activated versus agonist-activated cells (Hh signaling): differ in their sensitivity

C=C[C@@]1(C)CC(=O)[C@]2(O)[C@@]3(C)[C@@H](O)CCC(C)(C)[C@@H]3[C@H](O)[C@H](OC(C)=O)[C@@]2(C)O1 [forskolin]
inhibition of Hh protein-activated versus agonist-activated cells (Hh signaling): identical inhibition curves | effect on pathway activation by the agonist (Hh signaling): inhibitory

CC1=C2C(=O)[C@H]3[C@@H](CC=C4C[C@@H](O)CC[C@@]43C)[C@@H]2CC[C@]12O[C@@H]1C[C@H](C)CN[C@H]1[C@H]2C [jervine]
inhibition of Hh protein-activated versus agonist-activated cells (Hh signaling): Identical results

C[C@H]1CC[C@]2(NC1)O[C@H]1C[C@H]3[C@@H]4CC[C@H]5C[C@@H](O)CC[C@]5(C)[C@H]4CC[C@]3(C)[C@H]1[C@@H]2C [tomatadine]
Hh signaling activity (Hh signaling; described in words): inactive
